In US8889621B2, “Inhibiting binding of FGF23 to the binary FGFR-Klotho complex for the treatment of hypophosphatemia” (New York University, priority 2009, dated 2014):
Where two headings read alike, the source gives them in different places. Blank lines part the entries; values can stand above or below the molecule they belong to. Peptide text beside a SMILES is read from it.

Test system: opossum kidney cell line OKP
Type: cell-based
Details: for effect on phosphate uptake when applied alone: 500 nM
Source text: The effects of FGF23 proteins/peptides on sodium-coupled phosphate uptake were studied in the opossum kidney cell line OKP (Miyauchi et al., “Stimulation of transient elevations in cytosolic Ca2+ is related to inhibition of Pi transport in OK cells,” Am J Physiol 259(3 Pt 2):[…]-493 (1990), which is hereby incorporated by reference in its entirety). The cell line has many characteristics of renal proximal tubule epithelium, including sodium gradient-dependent phosphate transport and sensitivity to parathyroid hormone (Miyauchi et al., “Stimulation of transient elevations in cytosolic Ca2+ is related to inhibition of Pi transport in OK cells,” Am J Physiol 259(3 Pt 2):[…]-493 (1990), which is hereby incorporated by reference in its entirety). OKP cells also express FGFR1-4 and Klotho (see next methods section). OKP cells were grown in culture as described previously (Hu et al., “Dopamine Acutely Stimulates Na+/H+ Exchanger (NHE3) Endocytosis Via Clathrin-coated Vesicles: Dependence on Protein Kinase A-mediated NHE3 Phosphorylation,” J Biol Chem 276(29):26906-26915 (2001), which is hereby incorporated by reference in its entirety). Cells grown in 24-well plates were stimulated for 4 h with FGF23^28-251 (0.5 to 1 nM), FGF23^180-251 (500 nM), FGF23^180-205 (500 nM), or mixtures of FGF23^28-251 (1 nM) with either FGF23^180-251 (1 to 500 nM) or FGF23^180-205 (1 to 500 nM). The 1 nM concentration of FGF23^28-251 was chosen for competition experiments with FGF23 C-terminal peptides because at this concentration, half-maximum inhibition of phosphate uptake is reached. After stimulation, the cells were rinsed with Na^+-free solution followed by 5 min incubation with uptake solution containing 100 μM KH2^32PO4 (2 mCi/ml, Perkin Elmer). The reaction was stopped by aspiration of uptake solution and washing cells with ice-cold stop solution (10 mM HEPES pH 7.4, 140 mM NaCl, 1 mM MgCl2). Each transport reaction was performed in triplicates.

- IC50 (4 h): 100 to 500 nM
Molecule: CSCC[C@H](NC(=O)[C@H](CCCNC(=N)N)NC(=O)[C@H](C)NC(=O)[C@H](CCCNC(=N)N)NC(=O)[C@@H]1CCCN1C(=O)[C@H](CCCCN)NC(=O)[C@H](CC(C)C)NC(=O)[C@@H](NC(=O)[C@H](CC(N)=O)NC(=O)[C@H](CC(C)C)NC(=O)[C@@H]1CCCN1C(=O)[C@H](CC(=O)O)NC(=O)[C@H](CCCNC(=N)N)NC(=O)[C@H](CCC(=O)O)NC(=O)[C@H](CO)NC(=O)[C@H](CC(=O)O)NC(=O)[C@H](CC(=O)O)NC(=O)[C@H](CCC(=O)O)NC(=O)[C@H](C)NC(=O)[C@@H](N)CO)C(C)C)C(=O)N[C@H](C(=O)N1CCC[C@H]1C(=O)N[C@@H](C)C(=O)N1CCC[C@H]1C(=O)N[C@@H](C)C(=O)N[C@@H](CO)C(=O)O)[C@@H](C)O [FGF23^180-205] (H-SAEDDSERDPLNVLKPRARMTPAPAS-OH; N-terminus and C-terminus assumed)
- effect on phosphate uptake when applied alone (4 h): neither of the two FGF23 C-terminal peptides altered phosphate uptake
- antagonism of FGF23 inhibition of phosphate uptake (FGF23^28-251 1 nM, 4 h stimulation): similar, albeit less potent antagonistic effect

B1: FGF23^180-251: 72-amino acid C-terminal tail of human FGF23 (S180 to I251), expressed in E. coli (protein, listed as Homo sapiens)
chain: SAEDDSERDPLNVLKPRARMTPAPASCSQELPSAEDNSPMASDPLGVVRGGRVNTHAGGTGPEGCRPFAKFI
- effect on phosphate uptake when applied alone (4 h): neither of the two FGF23 C-terminal peptides altered phosphate uptake

- IC50 (4 h stimulation, read-out: concentration at which half-maximum inhibition of phosphate uptake is reached): 1 nM
B2: FGF23^28-251: human FGF23 (A28 to I251), bioactive full-length ligand expressed in E. coli (protein, listed as Homo sapiens)
chain: ASPLLGSSWGGLIHLYTATARNSYHLQIHKNGHVDGAPHQTIYSALMIRSEDAGFVVITGVMSRRYLCMDFRGNIFGSHYFDPENCRFQHQTLENGYDVYHSPQYHFLVSLGRAKRAFLPGMNPPPYSQFLSRRNEIPLIHFNTPIPRRHTRSAEDDSERDPLNVLKPRARMTPAPASCSQELPSAEDNSPMASDPLGVVRGGRVNTHAGGTGPEGCRPFAKFI
